Assay results taken from ChEMBL document CHEMBL4028827, “Discovery of indazole aldosterone synthase (CYP11B2) inhibitors as potential treatments for hypertension” (Bioorg Med Chem Lett, 2017).
pIC50: −log10 of the molar value.

Legend:
[1] = Intrinsic clearance in rat liver microsomes at […] preincubated for 10 mins followed by NADPH addition measured after 45 mins by LC-MS analysis; assay type: ADME, microsome; conditions: read-out: CLH
Steroid 21-hydroxylase = target: T1, Steroid 21-hydroxylase (Homo sapiens, UniProt P08686); assay: Inhibition of human CYP21 expressed in African green monkey COS7 cells using […] as substrate preincubated for 1 hr followed by substrate addition measured for 3 hrs by HTRF assay; assay type: cell-based
T1 sequence (P08686 whole entry): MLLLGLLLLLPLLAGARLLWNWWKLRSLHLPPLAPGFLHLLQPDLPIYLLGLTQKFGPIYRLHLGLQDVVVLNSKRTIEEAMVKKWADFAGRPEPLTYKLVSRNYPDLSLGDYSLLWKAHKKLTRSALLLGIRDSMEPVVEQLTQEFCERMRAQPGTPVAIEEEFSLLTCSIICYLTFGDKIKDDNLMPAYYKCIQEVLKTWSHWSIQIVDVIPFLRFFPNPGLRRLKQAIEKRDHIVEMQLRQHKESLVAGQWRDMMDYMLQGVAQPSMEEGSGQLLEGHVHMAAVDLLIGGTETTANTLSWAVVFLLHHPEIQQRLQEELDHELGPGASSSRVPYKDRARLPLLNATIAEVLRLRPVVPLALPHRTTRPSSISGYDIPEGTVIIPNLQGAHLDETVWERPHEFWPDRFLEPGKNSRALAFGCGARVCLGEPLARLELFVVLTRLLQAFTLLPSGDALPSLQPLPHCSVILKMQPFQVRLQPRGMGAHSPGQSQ

[2] = Selectivity ratio of IC50 for hepatic CYP2D6 (unknown origin) to IC50 for human CYP11B2-CLE9 expressed in Chinese hamster V79 cells
[3] = Selectivity ratio of IC50 for hepatic CYP2C9 (unknown origin) to IC50 for human CYP11B2-CLE9 expressed in Chinese hamster V79 cells
[4] = Half life in Sprague-Dawley rat at 1 mg/kg, iv or 2 mg/kg, po administered via gavage by LC-MS/MS analysis; assay type: ADME, organism-based; conditions: in vivo
Aromatase = target: T2, Aromatase (Homo sapiens, UniProt P11511); assay: Inhibition of CYP19 (unknown origin) using MFC as substrate and NADPH as cofactor preincubated for 10 mins with cofactor followed by substrate/enzyme addition measured after 30 mins
T2 sequence (P11511 whole entry): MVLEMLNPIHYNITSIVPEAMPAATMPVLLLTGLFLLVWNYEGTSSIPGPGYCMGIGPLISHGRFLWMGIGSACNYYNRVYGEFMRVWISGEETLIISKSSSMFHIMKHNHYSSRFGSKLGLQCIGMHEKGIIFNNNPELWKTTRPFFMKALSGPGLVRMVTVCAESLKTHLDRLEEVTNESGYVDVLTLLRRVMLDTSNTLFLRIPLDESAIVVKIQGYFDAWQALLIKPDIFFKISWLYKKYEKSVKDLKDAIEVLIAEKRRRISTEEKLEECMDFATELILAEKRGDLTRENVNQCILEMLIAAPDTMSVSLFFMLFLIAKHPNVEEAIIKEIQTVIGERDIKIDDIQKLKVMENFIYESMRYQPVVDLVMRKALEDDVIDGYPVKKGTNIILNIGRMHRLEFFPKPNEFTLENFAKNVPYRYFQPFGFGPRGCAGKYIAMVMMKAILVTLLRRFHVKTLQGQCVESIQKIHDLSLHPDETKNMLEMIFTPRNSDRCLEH

[5] = Plasma clearance in Sprague-Dawley rat at 1 mg/kg, iv or 2 mg/kg, po administered via gavage by LC-MS/MS analysis; assay type: ADME, organism-based
Rattus norvegicus = assay: Dose normalized AUC in Sprague-Dawley rat at 2 mg/kg, po administered via gavage by LC-MS/MS analysis; assay type: ADME, organism-based; conditions: in vivo
[6] = Volume of distribution in Sprague-Dawley rat at 1 mg/kg, iv or 2 mg/kg, po administered via gavage by LC-MS/MS analysis; assay type: ADME, organism-based; conditions: in vivo
Cytochrome P450 2D6 = Cytochrome P450 2D6 (Homo sapiens, UniProt P10635); assay: Inhibition of hepatic CYP2D6 (unknown origin); assay type: ADME
Sequence of Cytochrome P450 2D6 (P10635 whole entry): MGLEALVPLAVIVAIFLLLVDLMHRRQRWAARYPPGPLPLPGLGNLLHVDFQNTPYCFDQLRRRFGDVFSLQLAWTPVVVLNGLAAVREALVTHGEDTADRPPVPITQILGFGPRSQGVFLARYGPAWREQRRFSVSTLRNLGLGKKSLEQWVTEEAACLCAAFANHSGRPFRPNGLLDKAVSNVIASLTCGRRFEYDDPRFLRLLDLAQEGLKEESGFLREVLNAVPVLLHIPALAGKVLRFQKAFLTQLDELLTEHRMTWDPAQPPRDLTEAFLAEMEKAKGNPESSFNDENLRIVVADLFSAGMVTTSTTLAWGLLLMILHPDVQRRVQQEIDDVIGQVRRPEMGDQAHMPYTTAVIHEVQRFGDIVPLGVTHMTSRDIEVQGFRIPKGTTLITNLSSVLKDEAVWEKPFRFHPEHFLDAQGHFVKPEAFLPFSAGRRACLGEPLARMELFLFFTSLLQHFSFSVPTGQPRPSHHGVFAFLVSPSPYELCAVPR

Cytochrome P450 2C9 = Cytochrome P450 2C9 (Homo sapiens, UniProt P11712); assay: Inhibition of hepatic CYP2C9 (unknown origin); assay type: ADME
Sequence of Cytochrome P450 2C9 (P11712 whole entry): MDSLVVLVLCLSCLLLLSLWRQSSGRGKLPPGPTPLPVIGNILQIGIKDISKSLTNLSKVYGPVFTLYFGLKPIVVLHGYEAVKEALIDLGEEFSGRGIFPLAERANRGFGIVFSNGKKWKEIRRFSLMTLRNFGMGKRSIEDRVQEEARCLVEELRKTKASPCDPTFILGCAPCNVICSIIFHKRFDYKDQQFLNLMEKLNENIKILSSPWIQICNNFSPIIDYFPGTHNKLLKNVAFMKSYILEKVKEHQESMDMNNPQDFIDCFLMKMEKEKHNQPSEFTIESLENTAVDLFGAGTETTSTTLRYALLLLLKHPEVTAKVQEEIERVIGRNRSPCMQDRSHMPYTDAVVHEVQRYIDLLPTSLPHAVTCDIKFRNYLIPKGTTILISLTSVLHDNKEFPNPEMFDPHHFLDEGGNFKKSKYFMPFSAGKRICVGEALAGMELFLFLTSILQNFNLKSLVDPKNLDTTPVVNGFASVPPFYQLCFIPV

[7] = target: T3, Steroid 17-alpha-hydroxylase/17,20 lyase (Homo sapiens, UniProt P05093); assay: Inhibition of human CYP17 expressed in African green monkey COS7 cells using 17-hydroxypregnenolone as substrate preincubated for 1 hr followed by substrate addition measured after 3 hrs by EIA; assay type: cell-based
T3 sequence (P05093 whole entry): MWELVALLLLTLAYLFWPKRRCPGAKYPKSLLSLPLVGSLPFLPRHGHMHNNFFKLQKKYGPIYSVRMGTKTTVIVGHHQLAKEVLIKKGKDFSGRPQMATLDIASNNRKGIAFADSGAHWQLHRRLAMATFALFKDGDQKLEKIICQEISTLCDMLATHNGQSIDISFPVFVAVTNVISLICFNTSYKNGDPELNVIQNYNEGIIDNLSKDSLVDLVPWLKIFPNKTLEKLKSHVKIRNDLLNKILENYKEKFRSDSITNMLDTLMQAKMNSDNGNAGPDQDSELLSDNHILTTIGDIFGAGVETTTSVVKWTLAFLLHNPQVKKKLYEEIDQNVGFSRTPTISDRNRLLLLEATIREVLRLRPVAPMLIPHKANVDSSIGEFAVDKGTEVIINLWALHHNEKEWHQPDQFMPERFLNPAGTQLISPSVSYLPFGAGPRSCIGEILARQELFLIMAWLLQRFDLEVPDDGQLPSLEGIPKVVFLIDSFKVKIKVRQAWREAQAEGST

[8] = target: T4, Cytochrome P450 11B2, mitochondrial (Homo sapiens, UniProt P19099); assay: Inhibition of human CYP11B2-CLE9 expressed in Chinese hamster V79 cells using 11-deoxycorticosterone as substrate preincubated for 1 hr followed by substrate addition measured for 3 hrs by HTRF assay; assay type: cell-based
T4 sequence (P19099 whole entry): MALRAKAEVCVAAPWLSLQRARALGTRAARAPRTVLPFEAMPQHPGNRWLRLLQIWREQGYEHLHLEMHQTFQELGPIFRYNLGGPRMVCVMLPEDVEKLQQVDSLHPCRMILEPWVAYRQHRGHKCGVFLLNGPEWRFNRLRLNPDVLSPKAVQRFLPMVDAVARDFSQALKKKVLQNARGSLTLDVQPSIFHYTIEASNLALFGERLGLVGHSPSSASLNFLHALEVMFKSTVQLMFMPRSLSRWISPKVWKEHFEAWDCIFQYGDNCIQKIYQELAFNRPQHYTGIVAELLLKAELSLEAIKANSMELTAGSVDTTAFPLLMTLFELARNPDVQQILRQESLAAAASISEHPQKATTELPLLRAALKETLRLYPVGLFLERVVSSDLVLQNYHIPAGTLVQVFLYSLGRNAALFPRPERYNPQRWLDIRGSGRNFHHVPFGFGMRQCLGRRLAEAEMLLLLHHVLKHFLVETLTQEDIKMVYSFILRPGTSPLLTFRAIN

[9] = Oral bioavailability in Sprague-Dawley rat at 2 mg/kg administered via gavage by LC-MS/MS analysis; assay type: ADME, organism-based; conditions: in vivo

For `CC(C)(O)c1cncc(-n2ncc3c(C(F)(F)F)cccc32)c1`, the CLint scaled [1] was less than 20 mL/min/kg, the pIC50 (Steroid 21-hydroxylase) was less than 5.00 and the “Ratio IC50” value [2] was greater than 1000. The “Ratio IC50” value [3] was greater than 4000, the half-life [4] was 7.6 h and the pIC50 (Aromatase) was 5.34. For the same compound, the clearance [5] was 14 mL/min/kg, the AUC/dose (Rattus norvegicus) was 0.85 µM·kg·h/mg and the Vd [6] was 6.3 L/kg. For the same compound, the pIC50 (Cytochrome P450 2D6) was 5.55, the pIC50 (Cytochrome P450 2C9) was 5.04 and the pIC50 [7] was less than 5.00. The pIC50 [8] was 8.65 to 8.66 and the bioavailability [9] was 28%.
